A word on the IC50: it is the concentration that gives 50% inhibition.

For 27 compounds, IC50 results are on record in patent US10617680B2 (CELGENE QUANTICEL RESEARCH, INC., priority 2017, dated 2020).

Some results are limits rather than exact numbers.

For the experiment, the target named is CBP (Homo sapiens (Human), UniProt Q92793). Put plainly: In vitro CBP inhibition (AlphaScreen, biotinylated H4-tetraacetyl peptide). It is filed as binding. To be noted: AlphaScreen, Table 29; read-out: CBP IC50. As for the experimental part: The CBP-inhibitory activity of the compounds described herein was determined by calculating the IC50. More specifically, CBP inhibitor activity was assayed as follows: CBP was cloned and expressed in E. coli as His-tag protein and purified by Nickel affinity and gel-filtration chromatography. […] CBP binding and inhibition is assessed by monitoring the interaction of biotinylated H4-tetraacetyl peptide (AnaSpec, H4K5/8/12/16(Ac), biotin-labeled) with the target using the AlphaScreen technology (Perkin Elmer). In a 384-well ProxiPlate CBP (50 nM final) was combined with peptide (20 nM final) in 50 mM HEPES (pH 7.3), 10 mM NaCl, 0.25 mM TCEP, 0.1% (w/v) BSA, and 0.005% (w/v) Brij-35 either in the presence of DMSO (final 0.4% DMSO) or compound dilution series in DMSO. After 20 min incubation at room temp, Alpha-streptavidin donor beads and Nickel Chelate acceptor beads were added to a final concentration of 5 μg/mL.
Chain of CBP (Q92793 1081-1197): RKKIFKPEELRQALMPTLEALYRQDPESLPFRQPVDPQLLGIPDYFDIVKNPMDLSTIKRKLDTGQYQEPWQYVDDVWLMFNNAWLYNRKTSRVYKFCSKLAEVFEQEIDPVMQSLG
The ability of the compounds disclosed herein to inhibit CBP activity was quantified and the respective IC50 value determined.
For orientation: In Alpha technology, singlet oxygen from a donor bead excites a nearby acceptor bead.

With `CCNc1ccc(-c2cc(=O)n(C)cc2-c2cnn(-c3cccc(F)c3C#N)c2)cn1` [Example 344, 2-(4-(6-(ethylamino)-1′-methyl-6′-oxo-1′,6′-dihydro-[3,4′-bipyridin]-3′-yl)-1H-pyrazol-1-yl)-6-fluorobenzonitrile], the IC50 was under 500 nM.

With `CCOc1cc(=O)n(C)cc1-c1cnn(-c2ccccc2C#N)c1` [Example 281, 2-(4-(4-ethoxy-1-methyl-6-oxo-1,6-dihydropyridin-3-yl)-1H-pyrazol-1-yl)benzonitrile], the IC50 was under 500 nM. The value for `Cn1ccc(-c2cc(=O)n(C)cc2-c2cnn(-c3cccc(Cl)c3C#N)c2)cc1=O` [Example 276, 2-Chloro-6-[4-(1,1′-dimethyl-6,2′-dioxo-1,6,1,′,2′-tetrahydro-[4,4′]bipyridinyl-3-yl)-pyrazol-1-yl]-benzonitrile] was under 500 nM; that for `CC(=O)NC[C@H]1CCN(c2cc(=O)n(C)cc2-c2cnn(Cc3ccccc3)c2)C1` (stereo in doubt) [Example 90, N-{1-[5-(1-benzyl-1H-pyrazol-4-yl)-1-methyl-2-oxo-1,2-dihydro-pyridin-4-yl]-pyrrolidin-3-yl-methyl}-acetamide] was 500 to 5000 nM; that for `CCOc1cc(=O)n(C)cc1-c1cnn(-c2cccc(C(C)C)c2C#N)c1` [Example 176, 2-[4-(4-Ethoxy-1-methyl-6-oxo-1,6-dihydro-pyridin-3-yl)-pyrazol-1-yl]-6-isopropyl-benzonitrile] was under 500 nM. For `Cn1cc(-c2cnn(Cc3ccccc3)c2)c(N2CC[C@H](C(=O)O)C2)cc1=O` [Example 75, (S)-1-(5-(1-benzyl-1H-pyrazol-4-yl)-1-methyl-2-oxo-1,2-dihydro-pyridin-4-yl)pyrrolidine-3-carboxylic acid] the value was under 500 nM. Take `Cn1cc(-c2cnn(CC3CC3)c2)c(-c2ccc(Cl)cc2)cc1=O` [Example 153, 4-(4-chloro-phenyl)-5-(1-cyclopropylmethyl-1H-pyrazol-4-yl)-1-methyl-1H-pyridin-2-one]: the IC50 is under 500 nM. For `CCc1cc(-c2cnn(-c3ccccc3C(=O)O)c2)cn(C)c1=O` [Example 257, 2-[4-(5-Ethyl-1-methyl-6-oxo-1,6-dihydro-pyridin-3-yl)-pyrazol-1-yl]-benzoic acid] the value was 500 to 5000 nM. For `CCOc1cc(=O)n(C)cc1-c1cnn(Cc2ccc(-c3cn[nH]c3)cc2)c1` [Example 103, 4-ethoxy-1-methyl-5-{1-[4-(1H-pyrazol-4-yl)-benzyl]-1H-pyrazol-4-yl}-1H-pyridin-2-one] the value was under 500 nM.

Consider `Cn1cc(-c2cnn(Cc3ccccc3)c2)c(-c2cnn(CC(C)(C)O)c2)cc1=O` [Example 161, 5-(1-benzyl-1H-pyrazol-4-yl)-4-(1-(2-hydroxy-2-methylpropyl)-1H-pyrazol-4-yl)-1-methyl-pyridin-2(1H)-one], for which the concentration for half-maximal inhibition (IC50) is under 500 nM. For `CCOc1cc(=O)n(C)cc1-c1cnn(Cc2ccccc2)c1` [Example 64, 5-(1-benzyl-1H-pyrazol-4-yl)-4-ethoxy-1-methylpyridin-2(1H)-one] the value was under 500 nM; for `CCOc1cc(=O)n(C)cc1-c1cnn(Cc2cccc(Br)c2)c1` [Example 105, 5-(1-(3-bromo-benzyl)-1H-pyrazol-4-yl)-4-ethoxy-1-methyl-pyridin-2(1H)-one], under 500 nM; for `CC(C)Oc1ccc(-c2cc(=O)n(C)cc2-c2cnn(-c3cccc(Cl)c3C#N)c2)cn1` [Example 363, 2-chloro-6-[4-[4-(6-isopropoxy-3-pyridyl)-1-methyl-6-oxo-3-pyridyl]pyrazol-1-yl]benzonitrile], under 500 nM. As to `COC(=O)c1ccn(-c2cc(=O)n(C)cc2-c2cnn(Cc3ccccc3)c2)c1` [Example 77, methyl 1-(5-(1-benzyl-1H-pyrazol-4-yl)-1-methyl-2-oxo-1,2-dihydro-pyridin-4-yl)-1H-pyrrole-3-carboxylate], the IC50 is under 500 nM. The value for `Cc1cc(-c2cnn(-c3ccccc3C#N)c2)cn(C)c1=O` [Example 254, 2-[4-(1,5-Dimethyl-6-oxo-1,6-dihydro-pyridin-3-yl)-pyrazol-1-yl]-benzonitrile] was under 500 nM; that for `CCOc1cc(=O)n(C)cc1-c1cn(Cc2ccccc2)nc1N` [Example 186, 5-(3-amino-1-benzyl-1H-pyrazol-4-yl)-4-ethoxy-1-methylpyridin-2(1H)-one] was under 500 nM.

Consider `CCOc1cc(=O)n(C)cc1-c1cnn(C(C)c2ccc(-c3ccccc3)cc2)c1` (stereo not drawn) [Example 63, 5-(1-(1-([1,1′-biphenyl]-4-yl)ethyl)-1H-pyrazol-4-yl)-4-ethoxy-1-methylpyridin-2(1H)-one], for which the IC50 is under 500 nM.

As for `Cn1cc(-c2cnn(-c3cccc(Cl)c3C#N)c2)c(-c2ccc(OC3CCCC3)nc2)cc1=O` [Example 352, 2-chloro-6-[4-[4-[6-(cyclopentoxy)-3-pyridyl]-1-methyl-6-oxo-3-pyridyl]pyrazol-1-yl]benzonitrile], the IC50 was under 500 nM. For `Cn1cc(-c2ncc(-c3ccccc3)o2)c(-c2ccccc2)cc1=O` [Example 394, 1-methyl-4-phenyl-5-(5-phenyloxazol-2-yl)pyridin-2(1H)-one] the value was 500 to 5000 nM. Consider `CCOc1cc(=O)n(C)cc1-c1cnn(Cc2ccc(C(C)C)cc2)c1` [Example 101, 4-ethoxy-5-[1-(4-isopropyl-benzyl)-1H-pyrazol-4-yl]-1-methyl-1H-pyridin-2-one], for which the concentration for half-maximal inhibition (IC50) was under 500 nM.

Consider `Cn1cc(-c2cnn(-c3ccccc3C#N)c2)c(-c2ccc(F)cc2)cc1=O` [Example 215, 2-{4-[4-(4-Fluoro-phenyl)-1-methyl-6-oxo-1,6-dihydro-pyridin-3-yl]-pyrazol-1-yl}-benzonitrile], for which the 50% inhibitory concentration (IC50) was under 500 nM. Regarding `CCOc1cc(=O)n(C)cc1-c1cnn(-c2c(Cl)cccc2Cl)c1` [Example 98, 5-(1-(2,6-dichlorophenyl)-1H-pyrazol-4-yl)-4-ethoxy-1-methyl-pyridin-2(1H)-one], the IC50 is under 500 nM.

For `CC(c1ccccc1)n1cc(-c2cn(C)c(=O)cc2-c2ccc(OCCCN(C)C)nc2)cn1` (stereo not drawn) [Example 313, 6-(3-(dimethylamino)propoxy)-1′-methyl-5′-(1-(1-phenylethyl)-1H-pyrazol-4-yl)-[3,4′-bipyridin]-2′(1′H)-one], the IC50 is under 500 nM.

As for `Cn1cc(-c2cnn(-c3cccc(F)c3C#N)c2)c(-c2cnc(N3CCCC3)nc2)cc1=O` [Example 336, 2-fluoro-6-[4-[1-methyl-6-oxo-4-(2-pyrrolidin-1-ylpyrimidin-5-yl)-3-pyridyl]pyrazol-1-yl]benzonitrile], the IC50 was under 500 nM. As for `Cn1cc(-c2cnn(-c3cccc(Cl)c3C#N)c2)c(-c2ccc(OC(F)F)nc2)cc1=O` [Example 354, 2-chloro-6-(4-(6-(difluoromethoxy)-1′-methyl-6′-oxo-1′,6′-dihydro-[3,4′-bipyridin]-3′-yl)-1H-pyrazol-1-yl)benzonitrile], the IC50 was under 500 nM. With `Cc1cc(-c2cnn(C(C)c3ccccc3)c2)cn(C)c1=O` (stereo not drawn) [Example 17, 1,3-dimethyl-5-(1-(1-phenylethyl)-1H-pyrazol-4-yl)pyridin-2(1H)-one], the IC50 is under 500 nM. Take `CN1CCN(c2ncc(-c3cc(=O)n(C)cc3-c3cnn(-c4cccc(Cl)c4C#N)c3)cn2)CC1` [Example 337, 2-chloro-6-(4-(1-methyl-4-(2-(4-methylpiperazin-1-yl)pyrimidin-5-yl)-6-oxo-1,6-dihydropyridin-3-yl)-1H-pyrazol-1-yl)benzonitrile]: the IC50 is under 500 nM.
